Measurements reported in PMC4891657, “Orexin 2 Receptor Antagonism is Sufficient to Promote NREM and REM Sleep from Mouse to Man” (Scientific Reports, 2016).
Positions count from the first letter of the chain named.

Key:
OX1R [1] = molecular target: T1, OX1R (Oryctolagus cuniculus, UniProt G1SPJ3); experiment: Inhibition of orexin-peptide-A-induced calcium mobilization in CHO cells, rabbit OX1R; type: cell-based
T1 sequence (G1SPJ3 1-416): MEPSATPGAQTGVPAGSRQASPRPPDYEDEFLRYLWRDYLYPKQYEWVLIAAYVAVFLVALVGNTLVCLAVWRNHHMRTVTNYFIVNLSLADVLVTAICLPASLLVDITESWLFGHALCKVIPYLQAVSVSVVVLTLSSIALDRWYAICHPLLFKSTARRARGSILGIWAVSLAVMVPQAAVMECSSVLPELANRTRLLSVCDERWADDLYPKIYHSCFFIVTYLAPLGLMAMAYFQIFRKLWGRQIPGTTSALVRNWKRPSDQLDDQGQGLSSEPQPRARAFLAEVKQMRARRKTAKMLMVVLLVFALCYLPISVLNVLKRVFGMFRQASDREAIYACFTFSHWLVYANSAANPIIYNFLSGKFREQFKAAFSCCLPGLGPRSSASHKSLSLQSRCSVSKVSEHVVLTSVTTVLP
Procedure: (§1) MK-1064 was evaluated for its ability to inhibit orexin-peptide-A-induced calcium mobilization in CHO cell lines separately expressing OX1R and OX2R from mice, rats, rabbits, dogs, rhesus monkeys and humans.
(§2) Binding and functional blockade of OX1R and OX2R with MK-1064 relative to other 2-SORAs and the DORA, MK-6096, were assessed using membranes from Chinese hamster ovary (CHO)-K1 cells (American Type Tissue Collection, Manassas, VA) transfected to express human, mouse, rat, rabbit, dog, or rhesus monkey OX1R or OX2R receptors, as described previously. The kinetics of binding to human OX2R was assessed by radioligand displacement on CHO-K1 cells expressing the receptor. […] The ON rate analysis was performed by presoaking GF/B filters in 0.3% polyethyleneimine (Sigma) using a Skatron 12-well cell harvester and cold buffer at the indicated time points after addition. For OFF rate determination, binding reactions were allowed to proceed to equilibrium and terminated with 1000x [Kd] of unlabeled antagonist and filtered as above at pre-determined time points. Ultima Gold^TM (PerkinElmer 6013327) scintillation cocktail was added to each filter disc and counted on a PerkinElmer TriCarb 2910 scintillation counter. Data were analyzed using GraphPad® Prism v 6.04 (San Diego, CA, USA). The KON rate was determined according to the equation, KON = (KOBS − KOFF)/[ligand].

OX1R [2] = molecular target: T2, OX1R (Mus musculus, UniProt P58307); experiment: Radio-ligand displacement binding, CHO-K1 membranes, mouse OX1R; settings: read-out: OX1R affinity (Ki)
T2 construct: expressed in transfected cells; host or cells: CHO-K1
T2 sequence (P58307 1-416): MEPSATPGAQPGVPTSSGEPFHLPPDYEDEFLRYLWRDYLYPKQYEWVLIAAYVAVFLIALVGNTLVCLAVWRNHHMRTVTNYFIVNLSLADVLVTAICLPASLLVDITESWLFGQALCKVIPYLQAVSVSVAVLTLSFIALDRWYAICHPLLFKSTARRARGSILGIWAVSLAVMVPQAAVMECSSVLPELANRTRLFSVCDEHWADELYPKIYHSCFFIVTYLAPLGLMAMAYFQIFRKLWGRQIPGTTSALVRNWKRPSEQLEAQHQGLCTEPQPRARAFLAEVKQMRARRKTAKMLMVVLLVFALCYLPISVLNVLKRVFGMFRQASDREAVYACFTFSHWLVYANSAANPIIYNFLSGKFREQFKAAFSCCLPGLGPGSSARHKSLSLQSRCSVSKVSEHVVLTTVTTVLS
Procedure: as §1, §2

hOX1R = molecular target: T3, hOX1R (Homo sapiens, UniProt O43613); experiment: Radio-ligand displacement binding, CHO-K1 membranes, human OX1R; settings: read-out: OX1R affinity (Ki)
T3 construct: expressed in transfected cells; host or cells: CHO-K1
T3 sequence (O43613 1-425): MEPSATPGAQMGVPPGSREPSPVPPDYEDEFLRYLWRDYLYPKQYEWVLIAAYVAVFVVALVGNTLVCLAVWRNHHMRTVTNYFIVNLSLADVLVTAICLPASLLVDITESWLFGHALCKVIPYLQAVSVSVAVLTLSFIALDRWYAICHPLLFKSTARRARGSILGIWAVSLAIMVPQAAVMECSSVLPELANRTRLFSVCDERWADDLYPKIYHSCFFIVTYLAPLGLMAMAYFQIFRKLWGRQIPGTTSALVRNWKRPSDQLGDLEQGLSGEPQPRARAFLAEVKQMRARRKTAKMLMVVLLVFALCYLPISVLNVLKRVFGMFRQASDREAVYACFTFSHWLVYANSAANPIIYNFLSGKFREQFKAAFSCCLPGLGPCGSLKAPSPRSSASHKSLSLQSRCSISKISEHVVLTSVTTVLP
Procedure: as §1, §2

OX2R [3] = molecular target: T4, OX2R (Macaca mulatta, UniProt F7CZM2); experiment: Radio-ligand displacement binding, CHO-K1 membranes, rhesus OX2R; parameters: species or system rhesus monkey; settings: for fold OX2R selectivity (Ki): OX1R Ki / OX2R Ki; for Ki: read-out: OX2R affinity (Ki)
T4 sequence (F7CZM2 1-444): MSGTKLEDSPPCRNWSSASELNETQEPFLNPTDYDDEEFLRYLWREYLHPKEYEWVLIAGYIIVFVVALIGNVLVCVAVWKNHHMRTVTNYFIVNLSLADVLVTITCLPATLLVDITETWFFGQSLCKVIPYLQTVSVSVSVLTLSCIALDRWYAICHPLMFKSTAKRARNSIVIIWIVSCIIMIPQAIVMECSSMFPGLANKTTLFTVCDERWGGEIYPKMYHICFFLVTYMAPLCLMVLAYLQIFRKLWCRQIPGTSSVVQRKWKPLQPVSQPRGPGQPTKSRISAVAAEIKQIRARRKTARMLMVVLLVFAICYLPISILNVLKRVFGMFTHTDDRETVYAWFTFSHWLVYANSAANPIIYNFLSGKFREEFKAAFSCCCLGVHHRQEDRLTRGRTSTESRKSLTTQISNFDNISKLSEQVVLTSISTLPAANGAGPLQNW
Procedure: as §1, §2

OX2R [4] = molecular target: T5, OX2R (Homo sapiens, UniProt O43614); experiment: Inhibition of orexin-peptide-A-induced calcium mobilization in CHO cells, human OX2R; type: cell-based; parameters: expressed in transfected cells; host or cells: CHO-K1; settings: for fold OX2R selectivity (Kb): OX1R Kb / OX2R Kb
T5 sequence (O43614 1-444): T4 sequence (F7CZM2 1-444) with L113V, S195T, M196V, I286M, V308I, T334A, D337E
Procedure: as §1, §2

Row | Compound | Kb (OX1R [1]) [µM] | Ki (OX1R [2]) [µM] | Ki (hOX1R) [µM] | fold OX2R selectivity (Ki) (OX2R [3]) | Ki (OX2R [3]) [µM] | Kb (OX2R [4]) [µM] | fold OX2R selectivity (Kb) (OX2R [4])
1 | COc1ccc(CNC(=O)c2cc(-c3cncc(C)c3)ncc2-c2ccccc2)nc1OC [2-SORA-7] | 16.8 | 1.69 | 2.8 | [1994] fold | 0.00067 | 0.012 | [363] fold
2 | COc1ccc(CNC(=O)c2cc(-c3cc(Cl)cc(Cl)c3)cnc2-c2cccnc2)cc1OC [2-SORA-18] | 0.496 | 0.098 | 0.1 | [1200] fold | 0.00011 | 0.018 | [9] fold
3 | COc1ccc(CNC(=O)c2cc(-c3cncc(Cl)c3)cnc2-c2ccccn2)nc1OC [MK-1064, 5″-chloro-N-[(5,6-dimethoxypyridin-2-yl)methyl]-2,2′:5′, 3″-terpyridine-3′-carbo xamide] | 7.37 | 1.16 | 1.5 | [1315] fold | 0.00062 | 0.009 | [208] fold
4 | COc1ccc(CNC(=O)c2cc(-c3cncc(C)c3)ncc2-c2nccs2)nc1OC [MK-3697] | 32.1 | 3.95 | – | – | 0.00114 | 0.014 | –
5 | Cc1ccc(-c2ncccn2)c(C(=O)N2C[C@H](COc3ccc(F)cn3)CC[C@H]2C)c1 [MK-6096] | 0.013 | 0.0029 | 0.0025 | [28.4] fold | 0.00044 | 0.011 | [1.0] fold
